In series [1] the test system is Gram-positive and Gram-negative bacteria. Nature of the series: Antibiotic spectra (summary in words). In kind it is cell-based. The following applies: for Antibiotic activity against Gram-negative bacteria resistant to β-lactam antibiotics: genera Citrobacter, Proteus, Klebsiella, Enterobacter, Serratia as named at the place; for Antibiotic activity against Gram-positive bacteria: genera Staphylococcus, Diplococcus, Streptococcus, Bacillus as named at the place.

Series [2] can be described thus: Solubility. In kind it is physicochemical. The following applies: antibiotic (sodium salt); for Solubility in organic solvents: solvents named in the value. The text has this: The results are as shown as below:
The results are as shown below:

The test system of series [3] is Proteus vulgaris P-5. The experiment in a line: Potentiating and synergistic effect, pulp disc inhibition zone on agar plate. In kind it is cell-based. The settings on record: for Diameter of inhibitory zone, No addition / Diameter of inhibitory zone, Cephaloridine-added: Table 8; for Diameter of inhibitory zone, No addition: medium without cephaloridine; for Diameter of inhibitory zone, Cephaloridine-added: cephaloridine in the agar. How it is done:
10 ml of 2.5 folds diluted nutrient agar (pH 7.0) containing 50 μg/ml of penicillin G or cephaloridine was seeded with the β-lactamase producing and β-lactam-resistant microorganisms and poured in a 9 cm Petri dish to provide the bio-assay agar plate. […] A control assay plate was similarly prepared without penicillin G or cephaloridine. As reference antibiotics, 10,000 μg/ml of penicillin G or 20 μl of cephaloridine were disc-assayed under the same conditions.
Cepholoridine was added to a 2.5-times diluted nutrient agar, pH 7.0 and the medium was inoculated with a β-lactam-producing strain that produceds β-lactamase. Ten ml of the medium was spread and solidified in a petri dish of 9 cm in diameter to prepare an assay plate. […] Each 20 μl of the solution and its 2- and 4-times diluted solutions was soaked in a pulp disc of 8 mm in diameter. To the surface of the above nutrient agar was placed the pulp disc and the size of the growth inhibitory zone around the disc was examined after incubation at 35° C. for 18 hours. […] In addition, for the comparison, a similar experiment was also performed with a pulp disk soaked with 20 μl of 10,000 μg/ml Penicillin G or Cepholoridine solution in place of the antibiotic PS-7.

Series [4] has as its system Citrobacter freundii E-9. Described as above. Type of series: cell-based. The settings on record: Table 6, disc 20 μl, PS-6 240 μg/ml, reference antibiotics 10,000 μg/ml. As for the experimental part: (§1) 10 ml of 2.5 folds diluted nutrient agar (pH 7.0) containing 50 μg/ml of penicillin G or cephaloridine was seeded with the β-lactamase producing and β-lactam-resistant microorganisms and poured in a 9 cm Petri dish to provide the bio-assay agar plate. On this assay plate, 8 mm of pulp discs each containing 20 μl of antibiotic PS-6 solution at the concentration of 240 μg/ml were placed and incubated at 35° C. for 18 hours before reading the inhibition zones. A control assay plate was similarly prepared without penicillin G or cephaloridine. As reference antibiotics, 10,000 μg/ml of penicillin G or 20 μl of cephaloridine were disc-assayed under the same conditions.

The subject of series [5] is Serratia marcescens S-18. Described as above. Type of series: cell-based. The settings on record: Table 6, disc 20 μl, PS-6 240 μg/ml, reference antibiotics 10,000 μg/ml. As for the experimental part: as §1
The subject of series [6] is Staphylococcus aureus Bx-1633. The experiment in a line: MIC, broth dilution method. The settings on record: BX1633, 20 h, read-out: Minimum inhibitory concentration. A general note: Broth dilution looks for growth in wells or tubes with falling amounts of substance.
Series [7] has as its system Enterobacter sp. E-8. The experiment in a line: MIC, broth dilution method. The following applies: SP.E8, 20 h, read-out: Minimum inhibitory concentration.
The subject of series [8] is Staphylococcus aureus FDA 209P. Nature of the series: MIC, broth dilution method. Type of series: cell-based. The following applies: FDA209P, Table 5, 35° C. 20 hours, read-out: Minimum inhibitory concentration.
Series [9] deals with Diplococcus pneumoniae Type III. The experiment in a line: MIC, broth dilution method. Type of series: cell-based. The settings on record: Streptococcus pneumoniae, 20 h; Table 5; 10% horse blood supplemented into the medium; read-out: Minimum inhibitory concentration.
The test system of series [10] is Streptococcus pyogenes NY-5. The experiment in a line: MIC, broth dilution method. The following applies: Streptococcus pyogenes, NY5, 20 h, read-out: Minimum inhibitory concentration.
Series [11] concerns Enterobacter aerogenes E-19. Nature of the series: MIC, broth dilution method. The following applies: Klebsiella aerogenes, E19, 20 h, read-out: Minimum inhibitory concentration.
For series [12], the system named is Staphylococcus aureus Rassell. Nature of the series: MIC, broth dilution method. The following applies: 20 h, read-out: Minimum inhibitory concentration.
For series [13], the system named is Providencia sp. P-8. Nature of the series: MIC, broth dilution method. The settings on record: SP.P8, 20 h, read-out: Minimum inhibitory concentration.
Series [14] concerns Staphylococcus aureus Smith. Nature of the series: In vivo activity in intraperitoneally infected mice. Details: species or system DDY male mice. The settings on record: for ED50: Staphylococcus aureus, sc, mice infected i.p. with 5×10^5 cells/mouse, subcutaneous injection just after infection, read-out: 50% curative dose (CD50); for Therapeutic effect in infected mice: mice infected with pathogenic Gram-positive bacteria. As for the experimental part: Soon after infection, an aqueous solution of the antibiotic PS-5 sodium salt preparation was subcutaneously injected.
Activity of the antibiotic PS-7 obtained above was determined using mice infected with Staphylococcus aureus Smith at 5×10^5 cells a mouse intraperitoneally. Sodium salt of the antibiotic PS-7 was administered to the mice subcutaneously immediately after the infection.
The tritylation product of antibiotic PS-6 was subcutaneously injected just after infection. The 50% curative dose on male DDY mice (SHIZUOKA) was 5.5 mg/kg.
The tritylation product of antibiotic PS-7 was subcutaneously injected just after infection. The 50% curative dose on make DDY mice (SHIZUOKA) was 4.5 mg/kg.

The test system of series [15] is Staphylococcus aureus FDA 209P. Nature of the series: MIC, broth dilution method. In kind it is cell-based. The following applies: Staphylococcus aureus, FDA209P; Table 7; no unit in the head; read-out: Minimum inhibitory concentration.
Setting [16] is: agar containing 50 μg/ml of cephaloridine.
The mark [17] stands for this setting: agar containing 50 μg/ml of penicillin G.
Setting [18] is: disc x2 (2-times diluted PS-7 solution).
Where [19] appears, read: disc x4 (4-times diluted PS-7 solution).

In brackets after ≈: the same amount, converted by molar mass. Read-outs that look alike come from different tables or passages of the source.

`CC(=O)NCCSC1=C(C(=O)O)N2C(=O)C(C(C)C)C2C1` (stereo not drawn) [Antibiotic PS-6]: in series [1], the “Antibiotic activity against Gram-negative bacteria of the genera Klebsiella, Proteus” value is “good activity”. In addition, in series [1], the “Antibiotic activity against Gram-negative bacteria of the genus Alcaligenes (Comamonas)” value is “very strong activity”. Moreover, the “Antibiotic activity against Gram-negative bacteria resistant to β-lactam antibiotics” value in [1] was “strong activity”. Besides, the “Antibiotic activity against Gram-positive bacteria” value in series [1] is reported as “very strong activity”. The Solubility in water entry in series [2] is given as “soluble in water at pH 6 to 9”. The “Solubility in organic solvents” value in series [2] is “substantially insoluble in benzene, acetone and ethylacetate”. The zone of inhibition at 240 µg/mL was determined as 14 mm in series [3] (Proteus vulgaris, P5, Table 6, plate without penicillin G or cephaloridine, 8 mm disc, 20 μl, PS-6 240 μg/ml, reference antibiotics 10,000 μg/ml, 35° C. 18 hours, read-out: Inhibition zone, Control); 22 mm in series [4] (Citrobacter freundii, E9, 18 h, plate without penicillin G or cephaloridine, read-out: Inhibition zone, Control); 20 mm in series [5] (Serratia marcescens, S18, 18 h, plate without penicillin G or cephaloridine, read-out: Inhibition zone, Control). For the same compound, the “Inhibition zone, with cephaloridine” value in series [3] (Table 6, agar containing 50 μg/ml of cephaloridine, disc 20 μl, PS-6 240 μg/ml, reference antibiotics 10,000 μg/ml) was 28.5 mm; in [4] (setting [16]), 25.0 mm; in series [5] (setting [16]), 26.0 mm. Further, the “Inhibition zone, with penicillin G” value in series [3] (Table 6, agar containing 50 μg/ml of penicillin G, disc 20 μl, PS-6 240 μg/ml, reference antibiotics 10,000 μg/ml) is given as 30.0 mm; in [4] (setting [17]) it was 23.0 mm; in series [5] (setting [17]) it was 22.0 mm. The MIC stood at 0.33 µg/mL (≈ 1.06 µM) in series [6]; 12.5 µg/mL (≈ 40 µM) in [7]; 0.33 µg/mL (≈ 1.06 µM) in [8]; 0.17 µg/mL (≈ 0.544 µM) in [9]; 0.33 µg/mL (≈ 1.06 µM) in series [10]; 25 µg/mL (≈ 80 µM) in [11]. The MIC in series [12] was 1.34 µg/mL (≈ 4.29 µM); in series [13], 12.5 µg/mL (≈ 40 µM). Moreover, in series [14], the ED50 is 5.2 mg/kg. For the same compound, the “Therapeutic effect in infected mice” value in series [14] is “marked therapeutic effect”.

As to `CCC1C(=O)N2C(C(=O)O)=C(SC=CNC(C)=O)CC12` (stereo not drawn) [Antibiotic PS-7], in series [1], the “Antibiotic activity against Gram-negative bacteria of the genus Alcaligenes (Comamonas)” value was “high antimicrobial activity”, the “Antibiotic activity against Gram-negative bacteria resistant to β-lactam antibiotics” value is given as “high antimicrobial activity” and the “Antibiotic activity against Gram-positive bacteria” value is “very high antimicrobial activity”. For the same compound, in [2], the Solubility in water result is on record as “Soluble in water at pH6-9”; the “Solubility in organic solvents” value was “practically insoluble in benzene, acetone and ethyl acetate”. Also, the “Diameter of inhibitory zone, No addition” value in [3] (disc x1 (undiluted PS-7 solution, 50 μg/ml or 29 μg/ml, 20 μl)) is 0.0 mm. Further, in [3] (disc x1 (undiluted PS-7 solution, 20 μl)), the “Diameter of inhibitory zone, Cephaloridine-added” value stood at 19.0 mm. In series [3] (setting [18]), the “Diameter of inhibitory zone, Cephaloridine-added” value was determined as 15.0 mm and the “Diameter of inhibitory zone, No addition” value is listed as 0.0 mm. Moreover, in [3] (setting [19]), the “Diameter of inhibitory zone, Cephaloridine-added” value is listed as 11.0 mm and the “Diameter of inhibitory zone, No addition” value is listed as 0.0 mm. In series [15], the MIC is less than 0.19 µg/mL. For the same compound, in [14], the ED50 stood at 7.5 mg/kg and the “Therapeutic effect in infected mice” value was “marked therapeutic effect”.

The values above are taken from patent US4368203A, “Antibiotics and derivatives thereof having β-lactamase inhibitory activity and production thereof” (priority 1977, dated 1983).
